Experimental data reported in PubChem BioAssay (NCI).
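Cultured in 96-well plates, cells were exposed to test compound for 48 hours across five concentrations. Abbreviation: GI50, concentration required for 50% inhibition of growth. TGI: concentration producing complete growth inhibition.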

Assays:
Experiment in all cases: growth of human tumour cells (NCI), 48 h
[1] = system: NCI/ADR-RES ovarian
[2] = system: SK-OV-3 ovarian
[3] = system: UO-31 renal
[4] = system: SNB-19 CNS
[5] = system: OVCAR-5 ovarian
[6] = system: BT-549 breast
[7] = system: HL-60(TB) leukemia
[8] = system: OVCAR-3 ovarian
[9] = system: KM12 colon
[10] = system: HCT-116 colon

Structure (SMILES)	GI50 [1] [µM]	TGI [1] [µM]	GI50 [2] [µM]	TGI [2] [µM]	GI50 [3] [µM]	TGI [3] [µM]	GI50 [4] [µM]	TGI [4] [µM]	GI50 [5] [µM]	TGI [5] [µM]	GI50 [6] [µM]	TGI [6] [µM]	GI50 [7] [µM]	TGI [7] [µM]	GI50 [8] [µM]	TGI [8] [µM]	GI50 [9] [µM]	TGI [9] [µM]	GI50 [10] [µM]	TGI [10] [µM]
COc1cccc(-c2nn(-c3ccccc3)cc2-c2ccnc(NCCNS(=O)(=O)c3ccc(C(F)(F)F)cc3)c2)c1	2.79	14.4	3	11.1	2.61	> 100	4.62	> 100	4.98	> 100	1.95	4.56	1.97	5.63	2.59	7.3	3.02	16.7	3.27	15.8
CC1(C)SC2C(C(=O)O)N=C(Cc3ccccc3)N2C1C(=O)O (stereo not given)		> 100		> 100		39.5		> 100		> 100		> 100				> 100		> 100		> 100
CCN1C(=O)N(CC)C2C1NN=c1s/c(=C3\C(=O)N(CCC(C)C)c4ccccc43)c(=O)n12 (stereo not given)			2.53	18			2.39	11.5			1.96	6.33	2.12	4.5	1.75	4.33	0.616	11.4	1.06	2.49
O=C1C(=O)c2cc([N+](=O)[O-])ccc2-c2ccccc21	1.66	3.33	1.76	3.14	1.45	2.86	1.6	3	1.82	3.36	1.83	3.22			1.42	2.76	1.79	3.23	1.43	2.82
O=C1C2CC3C(CC2C(=O)[N]1[Sn]([c]1ccccc1)([c]1ccccc1)[c]1ccccc1)C1(Cl)C(Cl)=C(Cl)C3(Cl)C1(Cl)Cl (stereo not given)			0.137	0.353	0.0743	0.212	0.163	0.344	0.151	0.317	0.185	0.369	0.176	0.497	0.0964	0.222	0.13	0.29	0.0473	0.183
[N-]=[N+]=NC1(N=[N+]=[N-])C(=O)NN=C(c2ccccc2)C1=O (stereo not given)		> 100		> 100		> 100						> 100		> 100		> 100		> 100		38.7
N=c1nc(N)c2cc3c(N)nc(=N)c3cc12				72.5		34.5		> 100		73.9		51		6.78		75.2		> 100		34.4
O=C(O)C1C2C=CC(O2)C1C(=O)Nc1ccccc1 (stereo not given)		> 100		> 100		> 100		> 100		> 100		> 100				> 100		> 100		> 100
CC(=O)[O-].CC(=O)[O-].[Mn+2].c1ccc(/C(=N\Nc2ccccn2)c2ccccn2)cc1	0.0251	0.0989	0.0509	17.5		3.88		16.7				14.4	0.00173	0.00504		0.00913		13.7		0.739
Cc1ccc(-c2csc(N(C(=O)N3CCN(c4cc5c(cc4F)c(=O)c(C(=O)O)cn5C4CC4)CC3)c3ccccc3)n2)cc1			0.252	0.787			0.383	> 60			0.32	3.31			0.391	> 100	0.371	> 100	0.333	> 100
C[C@H](c1ccc(Cl)cc1N)N1C(=O)c2cc(I)ccc2N(CCCN2CCN(C)CC2)C(=O)[C@@H]1c1ccc(Cl)cc1	1.7	3.6	1.81	3.2	0.359	1.9	1.52	2.9	1.77	3.44			1.89	3.69	1.8	3.28	1.78	3.24	1.3	2.63
CC[C@H](C)c1occ2c(O)c(C(=O)O)c(=O)cc-2c1C		50.4		63.7				> 100		36.7		64.6		41.7		42.4		35.7		41.5
CC(C)C1C(=O)N2CCCC2C2(O)OC(NC(=O)C3C=C4c5cccc6[nH]cc(c56)CC4N(C)C3)(C(C)C)C(=O)N12 (stereo not given)		57.5				37		> 100		29.7		88.6		48.5		80.6		47.7		33.5
